Reference: PMC6277555, “Short Symmetric-End Antimicrobial Peptides Centered on β-Turn Amino Acids Unit Improve Selectivity and Stability” (Frontiers in Microbiology, 2018)
Converted amounts (≈) assume the structure as drawn. Residues, ends and D or L forms follow the SMILES beside them.

What was measured:
S. aureus = test: Time killing assay; assay type: cell-based, Staphylococcus aureus; details: mean of three independent assays
Protocol: (§1) The ability of peptides to kill bacterial cells was further investigated by analyzing the fraction of cell survival upon peptide treatment at various exposure times according to a previously described method ([Wiradharma et al., 2012]). Briefly, E. coli and S. aureus were treated at MIC and 2 × MIC concentrations with peptides. At various time periods (0, 5, 10, 30, 60, 90, 120, and 150 min), microbial suspensions were diluted at three different dilutions and plated on MHA plates. Microbial colonies were formed and counted after 24 h of incubation. The results were presented as the mean data from three independent assays.

E. coli ATCC25922 = assay type: cell-based, Escherichia coli
Protocol: The minimal inhibitory concentration (MIC) was determined according to a previously described method ([Chou et al., 2016]). Bacteria were cultured overnight to mid-log phase in MHB at 37°C and then diluted to give final concentrations ranging from 2 × 10^5 to 7 × 10^5 CFU/mL. Then, 50 μL of serial twofold dilutions of the peptides were added to each well in 96-well microtiter plates with a mixed solution containing 0.01% acetic acid and 0.2% bovine serum albumin (BSA, Sigma) was used to dissolve and dilute the peptides. Then, equal amounts of bacterial aliquots were incubated with the above peptide solution for 18-24 h at 37°C. The experiment was performed in triplicate using three replicates for each peptide and each bacterium. The broth was employed as a negative control and the broth with microbial cells was used as a positive control. The lowest concentration of peptide that prevented visible turbidity was defined as the MIC. The condition sensitivity of peptides was tested in an MIC assay in different environments, including salt sensitivity, thermal sensitivity and different pH values similar to our previous method ([[…] et al., 2008]; [Ma et al., 2012]). […] For the heat resistance experiments, the peptides were incubated at 100°C for 30 min and cooled on ice for 10 min. […] The determination methods for these MIC assays were same as described above. To test the effects of serum on the antimicrobial activities of the peptides, human serum was dissolved in MHB to reach final concentrations of 25 and 50%. The determination methods for these MIC assays were same as described above.

B. pyocyaneum ATCC 27853 = assay type: cell-based, Bacterium pyocyaneum
Protocol: (§2) The minimal inhibitory concentration (MIC) was determined according to a previously described method ([Chou et al., 2016]). Bacteria were cultured overnight to mid-log phase in MHB at 37°C and then diluted to give final concentrations ranging from 2 × 10^5 to 7 × 10^5 CFU/mL. Then, 50 μL of serial twofold dilutions of the peptides were added to each well in 96-well microtiter plates with a mixed solution containing 0.01% acetic acid and 0.2% bovine serum albumin (BSA, Sigma) was used to dissolve and dilute the peptides. Then, equal amounts of bacterial aliquots were incubated with the above peptide solution for 18–24 h at 37°C. The experiment was performed in triplicate using three replicates for each peptide and each bacterium. The broth was employed as a negative control and the broth with microbial cells was used as a positive control. The lowest concentration of peptide that prevented visible turbidity was defined as the MIC.

[1] = Calcein dye leakage from negatively charged LUVs; details: POPG/CL (3:1) LUVs, 100 μM lipid, 15 min, all tested concentrations (2 to 64 μM); relative to 0.1% Triton X-100
Protocol: Prepared calcein-entrapped large unilamellar vesicles (LUVs) were optimized using a previous method ([Stromstedt et al., 2009]). The negatively charged lipids composed of POPG/CL (3:1) were dissolved in chloroform, dried with a stream of nitrogen and resuspended in dye buffer solution (70 mM calcein, 10 mM Tris, 150 mM NaCl, and 0.1 mM EDTA, pH 7.4). The suspension was subjected to 10 freeze-thaw cycles in liquid nitrogen and extruded 21 times through polycarbonate filters (two stacked 100-nm pore size filters) with a LiposoFast extruder (Avestin, Inc., Canada). Untrapped calcein was removed by gel filtration on a Sephadex G-50 column. The lipid concentration was determined by quantitative phosphorus analysis. […] The leakage of calcein from LUVs was monitored by measuring the fluorescence intensity at an excitation wavelength of 490 nm and an emission wavelength of 520 nm on an F-4500 Fluorescence Spectrophotometer (Hitachi, Japan). […] The percentage of the calcein release caused by the AMPs was calculated using the following equation: (3) Dye release (%)=(Fobs−F0)/(F100−F0)×100% where F0 is the fluorescence intensity of the liposomes (background) and Fobs and F100 are the fluorescence intensities achieved by the peptides and Triton X-100, respectively.

E. coli = test: Time killing assay; assay type: cell-based, Escherichia coli; details: mean of three independent assays
Protocol: as §1

E. coli UB1005 = assay type: cell-based, Escherichia coli
Protocol: as §2

CC[C@H](C)[C@H](N)C(=O)N[C@@H](Cc1c[nH]cn1)C(=O)N[C@@H](CCCCN)C(=O)N[C@@H](Cc1ccccc1)C(=O)N[C@@H](Cc1c[nH]c2ccccc12)C(=O)N[C@@H](CCCNC(=N)N)C(=O)N[C@@H](CS)C(=O)N[C@@H](CCCNC(=N)N)C(=O)N[C@@H](CCCNC(=N)N)C(=O)N[C@@H](CCCNC(=N)N)C(=O)N[C@@H](Cc1ccccc1)C(=O)N[C@@H](CS)C(=O)N[C@@H](CCCNC(=N)N)C(=O)N[C@@H](Cc1c[nH]c2ccccc12)C(=O)N[C@@H](Cc1ccccc1)C(=O)N[C@@H](CCCCN)C(=O)N[C@@H](Cc1c[nH]cn1)C(=O)N[C@H](C(N)=O)[C@@H](C)CC [PQ] (H-IHKFWRCRRRFCRWFKHI-NH2; N-terminus assumed)
Time to kill S. aureus (S. aureus; peptide at 1 × MIC): 30 min
Time to kill S. aureus (S. aureus; peptide at 2 × MIC): 30 min
MIC (E. coli ATCC25922; ATCC25922): 16 µM (≈ 41.2 µg/mL)
MIC, CaCl2 (E. coli ATCC25922; ATCC25922): 32 µM (≈ 82.4 µg/mL)
MIC, Control (E. coli ATCC25922; ATCC25922): 16 µM (≈ 41.2 µg/mL)
MIC, FeCl3 (E. coli ATCC25922; ATCC25922): 8 µM (≈ 20.6 µg/mL)
MIC, Heat (100°C) (E. coli ATCC25922; ATCC25922): 32 µM (≈ 82.4 µg/mL)
MIC, KCl (E. coli ATCC25922; ATCC25922): 4 µM (≈ 10.3 µg/mL)
MIC, MgCl2 (E. coli ATCC25922; ATCC25922): 4 µM (≈ 10.3 µg/mL)
MIC, NH4Cl (E. coli ATCC25922; ATCC25922): 4 µM (≈ 10.3 µg/mL)
MIC, NaCl (E. coli ATCC25922; ATCC25922): 8 µM (≈ 20.6 µg/mL)
MIC, ZnCl2 (E. coli ATCC25922; ATCC25922): 4 µM (≈ 10.3 µg/mL)
MIC, pH 4.0 (E. coli ATCC25922; ATCC25922, pH 4): 8 μM
MIC, pH 6.0 (E. coli ATCC25922; ATCC25922, pH 6): 8 μM
MIC, pH 8.0 (E. coli ATCC25922; ATCC25922, pH 8): 4 μM
MIC, pH 10.0 (E. coli ATCC25922; ATCC25922, pH 10): 4 μM
MIC (B. pyocyaneum ATCC 27853): 8 µM (≈ 20.6 µg/mL)
Dye leakage (calcein release) [1]: more than 40%
Time to kill E. coli (E. coli; peptide at 1 × MIC): 30 min
Time to kill E. coli (E. coli; peptide at 2 × MIC): 30 min
MIC (E. coli UB1005): 8 µM (≈ 20.6 µg/mL)
